Measurements from patent US20250122211A1, “NITROGEN-CONTAINING TETRACYCLIC COMPOUND, PREPARATION METHOD THEREFOR, AND MEDICAL USE THEREOF” (Jiangsu Hengrui Pharmaceuticals Co., Ltd., priority 2021, published 2025).
Like-named read-outs stand apart in the source and are kept apart here.

Legend:
Assay type in all cases: cell-based
MIA PaCa-2 cells = experiment: MIA PaCa-2 cell proliferation assay (CellTiter-Glo); conditions: 72 h incubation, read-out: IC50 (nM), inhibitory activity against MIA PaCa-2 cell proliferation
Protocol: The inhibitory activity of the compounds of the present disclosure against MIA PaCa-2 cell proliferation was measured. Below is a brief description of the experimental method:
MIA PaCa-2 cells (ATCC, CRL-1420) were cultured in DMEM/HIGH GLUCOSE medium (GE, SH30243.01) containing 10% fetal bovine serum (Corning, 35-076-CV) and 2.5% horse serum (Beyotime Biological Tech., C0262) (i.e., complete medium). On the first day of the experiment, MIA PaCa-2 cells were seeded into a 96-well plate at a density of 500 cells/well using complete medium, with 90 µL of cell suspension per well, and the plate was incubated overnight in a 37° C., 5% CO2 cell incubator. On the second day, the test compounds, prepared in complete medium and serially diluted, were added at 10 μL/well. The final concentrations of the compounds were 9 concentration points obtained by a 5-fold serial dilution from 10 μM. A blank control containing 0.5% DMSO was set up. The plate was incubated for 72 h in a 37° C., 5% CO2 cell incubator. On the fifth day, the 96-well cell plate was removed from the incubator, and CellTiter-Glo® Luminescent Cell Viability Assay (Promega, G7573) was added at 50 μL/well. After 10 min of room temperature incubation, luminescence signals were measured using a multifunctional microplate reader (PerkinElmer, EnVision2015). The IC50 values for the inhibitory activity of the compounds were calculated using Graphpad Prism software.

H358 cells = experiment: H358 proliferation assay (CellTiter-Glo); conditions: 120 h incubation, read-out: IC50 (nM), inhibitory activity against H358 cell proliferation
Protocol: The inhibitory activity of the compounds of the present disclosure against H358 cell proliferation was measured. Below is a brief description of the experimental method: H358 cells (ATCC, CRL-5807) were cultured in RPMI1640 medium (Hyclone, SH30809.01) containing 10% fetal bovine serum (Corning, 35-076-CV) (i.e., complete medium). On the first day of the experiment, H358 cells were seeded into a 96-well plate at a density of 1200 cells/well using complete medium, with 100 μL of cell suspension per well, and the plate was incubated overnight in a 37° C., 5% CO2 cell incubator. On the second day, the test compounds, prepared in complete medium and serially diluted, were added at 10 μL/well. The final concentrations of the compounds were 9 concentration points obtained by a 5-fold serial dilution from 10 μM. A blank control containing 0.5% DMSO was set up. The plate was incubated for 120 h in a 37° C., 5% CO2 cell incubator. On the seventh day, the 96-well cell plate was removed from the incubator, and CellTiter-Glo® Luminescent Cell Viability Assay (Promega, G7573) was added at 50 μL/well. After 10 min of room temperature incubation, luminescence signals were measured using a multifunctional microplate reader (PerkinElmer, EnVision® 2105). The IC50 values for the inhibitory activity of the compounds were calculated using Graphpad Prism software.

[1] = test system: ERK phosphorylation in H358 cells; experiment: H358 cell ERK phosphorylation inhibition assay (HTRF pERK/total ERK); conditions: 3 h incubation, ratio of pERK/total ERK, read-out: IC50 (nM), inhibitory effects on ERK phosphorylation in H358 cells
Protocol: The inhibitory effects of the compounds of the present disclosure on ERK phosphorylation in H358 cells were measured. Below is a brief description of the experimental method: H358 cells (ATCC, CRL-5807) were cultured in RPMI1640 medium (Hyclone, SH30809.01) containing 10% fetal bovine serum (Corning, 35-076-CV) (i.e., complete medium). On the first day of the experiment, H358 cells were seeded into a 96-well plate at a density of 25,000 cells/well using complete medium, with 190 μL of cell suspension per well, and the plate was incubated overnight in a 37° C., 5% CO2 cell incubator. On the second day, the test compounds, prepared in complete medium and serially diluted, were added at 10 μL/well. The final concentrations of the compounds were 9 concentration points obtained by a 6-fold serial dilution from 10 μM. A blank control containing 0.5% DMSO was set up. The plate was incubated for 3 h in a 37° C., 5% CO2 cell incubator. After 3 h, the 96-well cell culture plate was removed from the incubator, and the culture medium was pipetted off. PBS (Shanghai BasalMedia Technologies Co., Ltd., B320) was added at 200 μL/well for a single wash. PBS was pipetted off, and lysis buffer (Cisbio, 64KL1FDF) containing a blocking agent (Cisbio, 64KB1AAC) was added at 50 μL/well. The plate was incubated on a shaker for 30 min at room temperature to lyse the cells. After lysis, the lysates were well mixed by pipetting, and 16 μL of lysate was transferred from each well to two HTRF 96-well assay plates (Cisbio, 66PL96100). Subsequently, 4 μL of a premixed phospho-ERK1/2 antibody solution (Cisbio, 64AERPEG) or 4 μL of a premixed total-ERK1/2 antibody solution (Cisbio, 64NRKPEG) was added to each of the plates. The plates were sealed with a plate sealer film, centrifuged for 1 min in a microplate centrifuge, and incubated overnight at room temperature in the dark. On the third day, fluorescence values at an excitation wavelength of 337 nm and emission wavelengths of 665 nm and 620 nm were measured using a PHERAstar multifunctional microplate reader (BMG Labtech, PHERAstar FS). The IC50 values for the inhibitory activity of the compounds were calculated using Graphpad Prism software, based on the compound concentration and the ratio of pERK/total ERK.

IC50 (MIA PaCa-2 cells)	IC50 (H358 cells)	IC50 [1]	IC50 (MIA PaCa-2 cells; Homo sapiens, MIA PaCa-2, 72 h)	IC50 (H358 cells; Homo sapiens, NCI-H358, 120 h)	IC50 ([1]; Homo sapiens, NCI-H358, 3 h)	SMILES
			4.56 nM	8 nM	1.06 nM	C=C(F)C(=O)N1CCN2C(=O)c3cc(F)c(-c4ccc(F)c5sc(N)c(C#N)c45)c4c(F)nn(c34)CC[C@H]2C1 (atropisomer, axis not shown) [Example 16-P2, (S)-2-Amino-4-((S)-2,4-difluoro-10-(2-fluoroacryloyl)-14-oxo-8,8a,9,10,11,12-hexahydro-7H,14H-pyrazino[1′,2′:5,6][1,5]diazocino[3,2,1-hi]indazol-3-yl)-7-fluorobenzo[b]thiophene-3-carbonitrile]
7.75 nM	4.21 nM	3.94 nM				C=C(F)C(=O)N1CCN2C(=O)c3cc(F)c(-c4ccc(F)c5sc(N)c(C#N)c45)c4c(C)nn(c34)CC[C@H]2C1 (atropisomer, axis not shown) [Example 15-P2, (S)-2-Amino-7-fluoro-4-((S)-2-fluoro-10-(2-fluoroacryloyl)-4-methyl-14-oxo-8,8a,9,10,11,12-hexahydro-7H,14H-pyrazino[1′,2′:5,6][1,5]diazocino[3,2,1-hi]indazol-3-yl)benzo[b]thiophene-3-carbonitrile]
56.8 nM	41.6 nM	19.7 nM				C=C(F)C(=O)N1CCN2C(=O)c3cc(F)c(-c4ccc(F)c5sc(N)c(C#N)c45)c4c(C)nn(c34)CC[C@H]2C1 (atropisomer, axis not shown) [Example 15-P1, (R)-2-Amino-7-fluoro-4-((S)-2-fluoro-10-(2-fluoroacryloyl)-4-methyl-14-oxo-8,8a,9,10,11,12-hexahydro-7H,14H-pyrazino[1′,2′:5,6][1,5]diazocino[3,2,1-hi]indazol-3-yl)benzo[b]thiophene-3-carbonitrile]
1.66 nM	4.94 nM	3.67 nM				C=CC(=O)N1CCN2C(=O)c3cc(F)c(-c4ccc(F)c5sc(N)c(C#N)c45)c4nnn(c34)CC[C@H]2C1 (atropisomer, axis not shown) [Example 20-P1, (R)-4-((S)-9-Acryloyl-2-fluoro-12-oxo-7,7a,8,9,10,11-hexahydro-6H,12H-4,5,5a,9,11a-pentaazabenzo[5,6]cycloocta[1,2,3-cd]inden-3-yl)-2-amino-7-fluorobenzo[b]thiophene-3-carbonitrile]

More lines, now with the values behind:

SMILES	IC50 (MIA PaCa-2 cells)	IC50 (H358 cells)	IC50 [1]	IC50 (MIA PaCa-2 cells; Homo sapiens, MIA PaCa-2, 72 h)	IC50 (H358 cells; Homo sapiens, NCI-H358, 120 h)	IC50 ([1]; Homo sapiens, NCI-H358, 3 h)
C=CC(=O)N1CCN2C(=O)c3c(F)c(F)c(-c4ccc(F)c5sc(N)c(C#N)c45)c4cnn(c34)CC[C@H]2C1 (atropisomer, axis not shown) [Example 11-P1, (R)-4-((S)-10-Acryloyl-1,2-difluoro-14-oxo-8,8a,9,10,11,12-hexahydro-7H,14H-pyrazino[1′,2′:5.6][1,5]diazocino[3,2,1-hi]indazol-3-yl)-2-amino-7-fluorobenzo[b]thiophene-3-carbonitrile]	2.71 nM	2.25 nM	7.67 nM			
C=CC(=O)N1CCN2C(=O)c3cc(F)c(-c4ccc(F)c5sc(N)c(C#N)c45)c4cc(C)n(c34)CC[C@H]2C1 [Example 4, 4-((S)-10-Acryloyl-2-fluoro-5-methyl-14-oxo-8,8a,9,10,11,12-hexahydro-7H,14H-pyrazino[1′,2′:5,6][1,5]diazocino[3,2,1-hi]indol-3-yl)-2-amino-7-fluorobenzo[b]thiophene-3-carbonitrile]				11.2 nM	13.4 nM	1.16 nM
C=CC(=O)N1CCN2C(=O)c3cc(F)c(-c4ccc(F)c5sc(N)c(C#N)c45)c4c(Cl)nn(c34)CC[C@H]2C1 (atropisomer, axis not shown) [Example 7-P2, (S)-4-((S)-10-Acryloyl-4-chloro-2-fluoro-14-oxo-8,8a,9,10,11,12-hexahydro-7H,14H-pyrazino[1′,2′:5,6][1,5]diazocino[3,2,1-hi]indazol-3-yl)-2-amino-7-fluorobenzo[b]thiophene-3-carbonitrile]				0.28 nM	0.74 nM	0.13 nM
C=CC(=O)N1C[C@@H]2CCn3ncc4c(-c5ccc(F)c6sc(N)c(C#N)c56)c(F)cc(c43)C(=O)N2C[C@H]1C [Example 10, 4-((8aS,11R)-10-Acryloyl-2-fluoro-11-methyl-14-oxo-8,8a,9,10,11,12-hexahydro-7H,14H-pyrazino[1′,2′:5,6][1,5]diazocino[3,2,1-hi]indazol-3-yl)-2-amino-7-fluorobenzo[b]thiophene-3-carbonitrile]				0.94 nM	0.8 nM	0.15 nM
C=CC(=O)N1CCN2C(=O)c3cc(F)c(-c4ccc(F)c5sc(N)c(C#N)c45)c4cnn(c34)CC[C@H]2C1 (atropisomer, axis not shown) [Example 1-P1, (R)-4-((S)-10-Acryloyl-2-fluoro-14-oxo-8,8a,9,10,11,12-hexahydro-7H,14H-pyrazino[1′,2′:5,6][1,5]diazocino[3,2,1-hi]indazol-3-yl)-2-amino-7-fluorobenzo[b]thiophene-3-carbonitrile]	2.79 nM	12 nM	1.33 nM			
C=CC(=O)N1CCN2C(=O)c3cc(F)c(-c4ccc(F)c5sc(N)c(C#N)c45)c4ccn(c34)CC[C@H]2C1 [Example 2, 4-((S)-10-Acryloyl-2-fluoro-14-oxo-8,8a,9,10,11,12-hexahydro-7H,14H-pyrazino[1′,2′:5,6][1,5]diazocino[3,2,1-hi]indol-3-yl)-2-amino-7-fluorobenzo[b]thiophene-3-carbonitrile]				5.87 nM	10.5 nM	0.28 nM
C=CC(=O)N1CCN2C(=O)c3cc(F)c(-c4ccc(F)c5sc(N)c(C#N)c45)c4cnn(c34)CC[C@H]2C1 (atropisomer, axis not shown) [Example 1-P2, (S)-4-((S)-10-Acryloyl-2-fluoro-14-oxo-8,8a,9,10,11,12-hexahydro-7H,14H-pyrazino[1′,2′:5,6][1,5]diazocino[3,2,1-hi]indazol-3-yl)-2-amino-7-fluorobenzo[b]thiophene-3-carbonitrile]	0.4 nM	0.93 nM	0.07 nM			
